In the NIST ThermoML archive (doi:10.1016/j.jct.2008.08.013):
± gives the expanded uncertainty stated by the source.

Test: xn = mol fraction of the nth substance listed
Conditions: 101 kPa, Liquid, Vibrating tube method

Nc1ccccc1 [aniline] + ClCCl
mass density [kg/m3]
Conditions | 288.15 K | 293.15 K | 298.15 K | 303.15 K
x2 = 0.0218 | 1030.69 ± 0.1 | 1025.78 ± 0.1 | 1021.79 ± 0.1 | 1017.43 ± 0.09
x2 = 0.1003 | 1048.42 ± 0.1 | 1043.36 ± 0.1 | 1039.19 ± 0.1 | 1034.68 ± 0.1
x2 = 0.2004 | 1072.39 ± 0.11 | 1067.17 ± 0.11 | 1062.72 ± 0.1 | 1057.97 ± 0.1
x2 = 0.2507 | 1085.02 ± 0.11 | 1079.67 ± 0.11 | 1075.06 ± 0.11 | 1070.21 ± 0.1
x2 = 0.2992 | 1097.6 ± 0.11 | 1092.14 ± 0.11 | 1087.38 ± 0.11 | 1082.37 ± 0.11
x2 = 0.3502 | 1111.25 ± 0.12 | 1105.64 ± 0.11 | 1100.68 ± 0.11 | 1095.52 ± 0.11
x2 = 0.3985 | 1124.6 ± 0.12 | 1118.83 ± 0.12 | 1113.68 ± 0.12 | 1108.38 ± 0.11
x2 = 0.4998 | 1153.99 ± 0.13 | 1147.9 ± 0.13 | 1142.28 ± 0.12 | 1136.65 ± 0.12
x2 = 0.5529 | 1170.24 ± 0.13 | 1164 ± 0.13 | 1158.09 ± 0.13 | 1152.21 ± 0.13
x2 = 0.6023 | 1185.94 ± 0.14 | 1179.46 ± 0.14 | 1173.3 ± 0.13 | 1167.19 ± 0.13
x2 = 0.6504 | 1201.8 ± 0.14 | 1195.11 ± 0.14 | 1188.66 ± 0.14 | 1182.34 ± 0.13
x2 = 0.6992 | 1218.48 ± 0.15 | 1211.56 ± 0.14 | 1204.8 ± 0.14 | 1198.22 ± 0.14
x2 = 0.7506 | 1236.69 ± 0.15 | 1229.48 ± 0.15 | 1222.36 ± 0.15 | 1215.59 ± 0.14
x2 = 0.8003 | 1254.94 ± 0.16 | 1247.49 ± 0.16 | 1239.98 ± 0.15 | 1232.77 ± 0.15
x2 = 0.8997 | 1293.47 ± 0.17 | 1285.36 ± 0.17 | 1277.01 ± 0.16 | 1269.11 ± 0.16
x2 = 0.9298 | 1305.66 ± 0.17 | 1297.3 ± 0.17 | 1288.69 ± 0.17 | 1280.69 ± 0.16
x2 = 0.9505 | 1314.14 ± 0.18 | 1305.64 ± 0.17 | 1296.8 ± 0.17 | 1288.52 ± 0.17
x2 = 0.9799 | 1326.37 ± 0.18 | 1317.62 ± 0.18 | 1308.49 ± 0.17 | 1299.98 ± 0.17
